According to patent US20080113907A1, “Uses Of Galectin-2” (Charite-Universitat-Smedizin Berlin, priority 2004, published 2008):
Each block holds one molecule with its values, some of them ahead of it.

B2: CD7 (receptor, human, UniProt P09564 26-240, looked up)
chain: AQEVQQSPHCTTVPVGASVNITCSTSGGLRGIYLRQLGPQPQDIIYYEDGVVPTTDRRFRGRIDFSGSQDNLTITMHRLQLSDTGTYTCQAITEVNVYGSGTLVLVTEEQSQGWHRCSDAPPRASALPAPPTGSALPDPQTASALPDPPAASALPAALAVISFLLGLGLGVACVLARTQIKKLCSWRDKNSAACVVYEDMSHSRCNTLSSPNQYQ
notes: whole, on cells

Key:
[1] = test system: CD3, CD7, β1 integrin; assay: Magnetic separation / co-immunoprecipitation of galectin containing complexes; format: binding, human; details: galectin coated beads, immunoblot for CD3, CD7, β1
Method: For immunoblotting cells were washed in PBS, and lysed in cell lysis buffer (1% Triton-X, 0.5% NP-40, 0.1% SDS, 0.5% sodium deoxycholate, 5 mM EDTA, 50 mM and 50 mM protease- and phosphatase-inhibitor cocktail 2, 1 mM PMSF, 100 μg/ml trypsin-chymotrypsin inhibitor, 100 μg/ml chymostatin in PBS). The concentration of proteins in each lysate was measured using the Bio-Rad protein assay (Bio-Rad Laboratories, Hercules, Calif.). Equivalent amounts of protein (10 μg) were fractionated on a 10-20% Tris-glycine gel and electrotransferred to a nitrocellulose membrane (Novex, San Diego, Calif.). Membranes were blocked with 5% milk in 0.1% Tween 20-PBS (Fisher Scientific, Hanover Park, Ill.), followed by incubation for 60 m in at room temperature with the indicated primary antibody. The membranes were washed six times with 0.1% Tween 20-PBS and then incubated for 1 h with the appropriate horseradish peroxidase-conjugated secondary antibody (Santa Cruz Biotechnology), washed, and incubated with the chemiluminescent substrate (Perkin-Elmer, Carlsbad, Calif.) for 5 minutes. The membranes were then exposed to film (Amersham, Arlington Heights, Ill.). […]

[2] = test system: PBT; assay: Analysis of T cell cycling (DNA content, cyclin B1, cell cycle regulators); format: cell-based, human; details: anti-CD3 activated PBT; dropped from 8% (galectin-1) and 7% (galectin-7)
Method: For immunoblotting cells were washed in PBS, and lysed in cell lysis buffer (1% Triton-X, 0.5% NP-40, 0.1% SDS, 0.5% sodium deoxycholate, 5 mM EDTA, 50 mM and 50 mM protease- and phosphatase-inhibitor cocktail 2, 1 mM PMSF, 100 μg/ml trypsin-chymotrypsin inhibitor, 100 μg/ml chymostatin in PBS). The concentration of proteins in each lysate was measured using the Bio-Rad protein assay (Bio-Rad Laboratories, Hercules, Calif.). Equivalent amounts of protein (10 μg) were fractionated on a 10-20% Tris-glycine gel and electrotransferred to a nitrocellulose membrane (Novex, San Diego, Calif.). Membranes were blocked with 5% milk in 0.1% Tween 20-PBS (Fisher Scientific, Hanover Park, Ill.), followed by incubation for 60 m in at room temperature with the indicated primary antibody. The membranes were washed six times with 0.1% Tween 20-PBS and then incubated for 1 h with the appropriate horseradish peroxidase-conjugated secondary antibody (Santa Cruz Biotechnology), washed, and incubated with the chemiluminescent substrate (Perkin-Elmer, Carlsbad, Calif.) for 5 minutes. The membranes were then exposed to film (Amersham, Arlington Heights, Ill.).
Flow cytometry was performed after staining for DNA content, and cyclin B1, essentially as previously described (21). Briefly, cells were washed twice with PBS, adjusted to 1×10^6 cells/sample and fixed in 90% Methanol at −20° C. After fixation, cells were washed twice with PBS, incubated for 45 min at 4° C. with a cyclin B1-FITC conjugated monoclonal antibody. After the final wash, cells were resupended in PBS and 5 μl of RNase (0.6 μg/ml, 30-60 Kunitz Units, Sigma), incubated at 37° C. for 15 min and the chilled on ice. One hundred and twenty five microliters of PI (200 μg/ml) were added prior to analysis by flow cytometry. Each analysis was performed on at least 25.000 events.

[3] = test system: T cells (PBT, LPT); assay: Integrin accessibility on T cell surface (flow cytometry); format: cell-based, human; details: CD3 activated PBT
Method: For surface staining, cells were washed twice in ice-cold PBS and 1×10^6 cells were resuspended in flow buffer (HBSS containing 1% BSA and 0.1% sodium azide). Cells were incubated with the respective mAb at predetermined saturating concentrations or with isotype-matched nonspecific mouse mAb (DAKO) for 30 min at 4° C., washed twice with flow buffer, and incubated with FITC-conjugated goat anti-mouse IgG for 30 min at 4° C. The cells were again washed twice with flow buffer, fixed in 1% paraformaldehyde and analyzed by a single laser flow cytometer (FacsCalibur, […]), using Cell Quest software (BD Pharmingen). Cells stained with a negative control Ab were gated to contain <2% positive cells. To perform analysis of intracellular proteins, cells were washed twice with PBS, adjusted to 1×10^6 cells per sample, and fixed in 90% methanol at −20° C. After fixation, cells were washed twice with PBS and incubated with a monoclonal mouse anti-bax, Bcl-2, Rb, Cyclin A, p21, p27, or p53 antibody for 45 minutes at 4° C., followed by an incubation with a goat anti-mouse FITC-conjugated mAb (Biosource) for 45 minutes at 4° C. Thereafter cells were washed and analyzed by flow cytometry as described above. The background level of immunofluorescence was determined by incubating cells with FITC-conjugated mouse IgG (isotype control).

[4] = test system: T cells (PBT, LPT); assay: Adhesion assay to collagen type I and fibronectin; format: cell-based, human; details: CD3 activated PBT
Method: 96 well flat-bottom plates were precoated overnight at 4° C. with 12 μg/well fibronectin (Chemicon) in DPBS, 40 μg/well collagen type I (Sigma-Aldrich) in 0.1 M acetic acid, or 3% BSA (Sigma-Aldrich) in DPBS as a control and then washed three times with DPBS. Freshly isolated T cells were fluorescently-labelled with 5 μM calcein-AM (Molecular Probes, Eugene, Oreg.) for 30 min at 37° C. in 5% CO2 at 5×10^6 cells/ml in RPMI. The cells were then washed three times with RPMI containing 5% FCS. Calcein-labelled T cells were resuspended in RPMI and 5×10^5 T cells/well were added to 96-well plates containing purified ECM components or BSA for the indicated times. Saturating concentrations of integrin-blocking mAbs (predetermined by flow cytometry) were preincubated with T cells for 30 min at 37° C. before adding T cells to the wells for the adhesion assay. Nonadherent cells were removed by a standardized washing technique that was developed to minimize background binding, which includes both an orbital and a rocking motion repeated three times with RPMI. Adhesion was quantified with a multiwell fluorescent spectrophotometer (Tecan, Groedig, Austria). For each experimental group the results were expressed as the mean percentage±SD of bound T cells from triplicate wells.

[5] = target: B2; assay: pull-down from T cells with Gal-2-coated magnetic beads, Western blot; agrees with antibody blocking in flow cytometry
Method: A) Cells were preincubated with CD3, CD7, and β1 mAb (1:100 dilution) for 1 h at RT and then cultured for additional 24 h in the presence of 5 μg/ml galectin-2 coupled to biotin. Cells were then harvested and binding of galectin-2 to T cells determined by two-color flow cytometry using streptavidin labelled-APC to detect biotinylated sites. B) Galectin-1 coimmunoprecipitates with CD3, CD7 and β1 integrin, whereas galectin-2 coimmunoprecipitate only with integrin β1. Cells were incubated with galectin-1 or -2 coated tosyl-activated beads and subsequently lysed. Bead-bound cell fragments were separated magnetically and immunoblotted for CD3, CD7 or β1. Both graphs are representative for four different experiments yielding similar results.
For separation of galectin-2-associated complexes, 1×10⁸ tosylactivated, supermagnetic, polysterene coated beads (Dynalbeads, Dynal Biotech, Oslo, Norway) were coated either with 350 μg BSA, Galectin-1, Galectin-2, CD7, integrin-β1 or OKT3 overnight at 37° C. using tilt rotation. After incubation, the beads were washed in 0.2 M Tris (pH 8.5 containing 0.1% BSA), and then incubated with 2×10⁶ PBT for 1 h at 37° C. […]

[6] = target: T1, BSA (UniProt P02769 25-607, coupled to tosylactivated magnetic beads); assay: pull-down from T cells with BSA-coated magnetic beads, Western blot
T1 construct: Negative control for the bead pull-down; also called BSA control
T1 sequence (P02769 25-607 limits assumed): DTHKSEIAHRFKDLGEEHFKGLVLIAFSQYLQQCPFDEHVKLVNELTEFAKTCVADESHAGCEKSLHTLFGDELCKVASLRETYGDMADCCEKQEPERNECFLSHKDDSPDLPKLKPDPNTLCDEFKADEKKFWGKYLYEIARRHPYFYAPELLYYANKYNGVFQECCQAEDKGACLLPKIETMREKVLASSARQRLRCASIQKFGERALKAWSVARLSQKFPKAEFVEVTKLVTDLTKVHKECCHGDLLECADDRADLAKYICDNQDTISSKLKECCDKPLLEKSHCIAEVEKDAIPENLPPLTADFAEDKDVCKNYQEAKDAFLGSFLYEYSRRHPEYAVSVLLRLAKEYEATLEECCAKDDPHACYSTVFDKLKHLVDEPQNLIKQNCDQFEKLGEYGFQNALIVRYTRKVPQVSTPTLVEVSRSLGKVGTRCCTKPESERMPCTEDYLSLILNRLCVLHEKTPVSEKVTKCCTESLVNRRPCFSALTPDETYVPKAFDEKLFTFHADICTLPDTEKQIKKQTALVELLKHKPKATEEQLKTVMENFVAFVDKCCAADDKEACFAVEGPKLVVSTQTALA

Molecule: galectin-1: prototype β-galactoside binding lectin used for comparison
- glycoproteins co-immunoprecipitated [1]: coimmunoprecipitates with CD3, CD7 and β1 integrin
- cyclin B1 expression [2]: 1%
- β4 integrin accessibility [3]: neither galectin-1 nor galectin-2 changed
- integrin α5 accessibility ([3]; 50 μg/ml): downregulated
- integrin β1 accessibility ([3]; 50 μg/ml): downregulated
- integrin a5 accessibility ([3]; second statement): slightly upregulated
- cells adhering to collagen type I ([4]; without galectin 22.1±3.5%): 9.2±3.5%
- cells adhering to fibronectin ([4]; without galectin 26.3±5.6%): 14.0±4.6%

- binding result [5]: no binding
B1: Galectin-2 (ligand, UniProt P05162 1-132, looked up)
chain: MAGELEVKNMDMKPGSTLKITGSIADGTDGFVINLGQGTDKLNLHFNPRFSESTIVCNSLDGSNWGQEQREDHLCFSPGSEVKFTVTFESDKFKVKLPDGHELTFPNRLGHSHLSYLSVRGGFNMSSFKLKE
modifications: biotinylated (sites not given) in the flow cytometry binding assays; coupled to tosylactivated magnetic beads in the pull-down
notes: The NcoI site gave a Thr(Ser)2Ala substitution: Thr in human, Ser in rat; also called Gal-2; biotinylated Gal-2

Molecule: B2
- binding result [6]: no binding
